Where two headings read alike, the source gives them in different places.
What was measured:
KIT = biological target: T1, KIT (Homo sapiens, UniProt P10721); test: Competition binding assay, KIT Kd; conditions: competition binding
T1 construct: made in house
Summary of the method: (§1)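 Compound displacement of kinase from bead-immobilized ligand is measured by qPCR after 1 h equilibration at room temperature. Kinases are T7 phage fusions or DNA-tagged HEK-293 products.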

PDGFRβ = biological target: T2, PDGFRβ (Homo sapiens, UniProt P09619); test: Competition binding assay, PDGFRβ Kd; conditions: competition binding
T2 construct: made in house
T2 sequence (P09619 33-1106): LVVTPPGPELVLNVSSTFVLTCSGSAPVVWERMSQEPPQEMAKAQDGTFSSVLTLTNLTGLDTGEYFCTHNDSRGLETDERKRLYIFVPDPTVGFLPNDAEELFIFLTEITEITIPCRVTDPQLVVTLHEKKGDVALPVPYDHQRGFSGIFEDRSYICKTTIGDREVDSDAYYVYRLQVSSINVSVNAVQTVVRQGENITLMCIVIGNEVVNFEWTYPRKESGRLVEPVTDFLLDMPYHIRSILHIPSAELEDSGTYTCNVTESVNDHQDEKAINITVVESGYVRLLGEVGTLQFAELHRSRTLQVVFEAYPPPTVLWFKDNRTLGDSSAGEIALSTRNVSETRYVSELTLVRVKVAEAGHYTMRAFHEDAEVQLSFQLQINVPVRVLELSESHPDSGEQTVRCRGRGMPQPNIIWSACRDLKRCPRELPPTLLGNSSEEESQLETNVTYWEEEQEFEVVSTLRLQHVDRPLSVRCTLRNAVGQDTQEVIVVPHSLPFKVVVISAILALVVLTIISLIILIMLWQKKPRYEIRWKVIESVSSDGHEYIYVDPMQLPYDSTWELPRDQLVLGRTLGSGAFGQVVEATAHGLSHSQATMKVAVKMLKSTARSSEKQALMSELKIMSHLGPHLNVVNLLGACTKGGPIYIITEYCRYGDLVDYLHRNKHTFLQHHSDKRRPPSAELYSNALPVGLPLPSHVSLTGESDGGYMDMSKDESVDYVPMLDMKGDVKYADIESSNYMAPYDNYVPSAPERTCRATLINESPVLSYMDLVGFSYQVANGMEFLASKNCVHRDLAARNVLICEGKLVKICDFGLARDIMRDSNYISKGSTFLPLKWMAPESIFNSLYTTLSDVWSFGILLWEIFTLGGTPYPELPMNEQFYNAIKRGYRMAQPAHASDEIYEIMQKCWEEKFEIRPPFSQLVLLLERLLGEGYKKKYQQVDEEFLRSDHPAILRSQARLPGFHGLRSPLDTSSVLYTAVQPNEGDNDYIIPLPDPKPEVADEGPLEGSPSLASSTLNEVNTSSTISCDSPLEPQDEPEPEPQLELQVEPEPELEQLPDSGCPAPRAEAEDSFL
Summary of the method: as §1

M-NFS-60 cells = test: M-NFS-60 cell proliferation assay (Alamar Blue); format: cell-based, mouse; conditions: M-NFS-60 cell proliferation, read-out: CSF1R M-NFS-60 CTB:IC50
Summary of the method: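 Alamar Blue reduction (3 h; 560/590 nm) measured viability after 72 h, 37 °C treatment with nine half-log compound concentrations at 0.5% DMSO. Cells: M-CSF-dependent (20 ng/mL) murine M-NFS-60 in RPMI plus 10% FBS. IC50s, averaged from duplicates, reflect half-maximal inhibition of proliferation relative to control.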

[1] = biological target: kinase panel containing either 386 or 392 distinct kinases; test: Kinase selectivity score S10 from competition binding panel; conditions: 10 μM, panel of 386 or 392 distinct kinases
Summary of the method: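 S10 is the number of kinases with percent-of-control under 10, divided by all distinct wild-type kinases tested, from a single 10 μM concentration. Binding measured by qPCR of kinase recovered from ligand-coated beads after 1 h equilibrium at room temperature; kinases were phage fusions or DNA-tagged HEK-293 products.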

CSF1R = CSF1R (Homo sapiens, UniProt P07333); test: Competition binding assay, CSF1R Kd; design: made in house; conditions: competition binding
Chain of CSF1R (P07333 20-972): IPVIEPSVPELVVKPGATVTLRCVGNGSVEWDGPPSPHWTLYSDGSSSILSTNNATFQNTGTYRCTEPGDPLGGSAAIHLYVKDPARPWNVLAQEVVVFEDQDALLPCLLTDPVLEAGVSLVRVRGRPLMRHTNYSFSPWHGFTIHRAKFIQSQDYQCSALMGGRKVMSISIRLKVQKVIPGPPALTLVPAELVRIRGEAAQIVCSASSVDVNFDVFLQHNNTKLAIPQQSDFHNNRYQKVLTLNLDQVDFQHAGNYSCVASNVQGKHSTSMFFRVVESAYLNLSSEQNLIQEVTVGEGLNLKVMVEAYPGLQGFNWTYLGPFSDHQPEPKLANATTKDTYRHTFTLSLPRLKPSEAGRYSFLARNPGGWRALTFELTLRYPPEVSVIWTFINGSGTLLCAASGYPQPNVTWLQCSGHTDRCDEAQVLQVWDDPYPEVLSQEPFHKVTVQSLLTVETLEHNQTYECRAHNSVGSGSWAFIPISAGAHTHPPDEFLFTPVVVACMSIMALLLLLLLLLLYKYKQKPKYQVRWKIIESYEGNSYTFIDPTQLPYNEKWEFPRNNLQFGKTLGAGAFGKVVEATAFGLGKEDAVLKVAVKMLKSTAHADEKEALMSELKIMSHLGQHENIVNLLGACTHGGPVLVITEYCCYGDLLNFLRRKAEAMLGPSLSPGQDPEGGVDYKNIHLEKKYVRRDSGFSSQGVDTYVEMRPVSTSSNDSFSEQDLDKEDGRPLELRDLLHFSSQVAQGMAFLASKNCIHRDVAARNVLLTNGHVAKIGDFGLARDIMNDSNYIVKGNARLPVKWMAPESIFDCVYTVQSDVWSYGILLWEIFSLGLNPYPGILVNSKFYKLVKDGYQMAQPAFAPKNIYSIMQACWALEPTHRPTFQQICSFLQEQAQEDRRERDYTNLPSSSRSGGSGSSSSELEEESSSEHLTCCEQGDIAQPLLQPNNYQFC
Summary of the method: as §1

T1 sequence (P10721 26-976): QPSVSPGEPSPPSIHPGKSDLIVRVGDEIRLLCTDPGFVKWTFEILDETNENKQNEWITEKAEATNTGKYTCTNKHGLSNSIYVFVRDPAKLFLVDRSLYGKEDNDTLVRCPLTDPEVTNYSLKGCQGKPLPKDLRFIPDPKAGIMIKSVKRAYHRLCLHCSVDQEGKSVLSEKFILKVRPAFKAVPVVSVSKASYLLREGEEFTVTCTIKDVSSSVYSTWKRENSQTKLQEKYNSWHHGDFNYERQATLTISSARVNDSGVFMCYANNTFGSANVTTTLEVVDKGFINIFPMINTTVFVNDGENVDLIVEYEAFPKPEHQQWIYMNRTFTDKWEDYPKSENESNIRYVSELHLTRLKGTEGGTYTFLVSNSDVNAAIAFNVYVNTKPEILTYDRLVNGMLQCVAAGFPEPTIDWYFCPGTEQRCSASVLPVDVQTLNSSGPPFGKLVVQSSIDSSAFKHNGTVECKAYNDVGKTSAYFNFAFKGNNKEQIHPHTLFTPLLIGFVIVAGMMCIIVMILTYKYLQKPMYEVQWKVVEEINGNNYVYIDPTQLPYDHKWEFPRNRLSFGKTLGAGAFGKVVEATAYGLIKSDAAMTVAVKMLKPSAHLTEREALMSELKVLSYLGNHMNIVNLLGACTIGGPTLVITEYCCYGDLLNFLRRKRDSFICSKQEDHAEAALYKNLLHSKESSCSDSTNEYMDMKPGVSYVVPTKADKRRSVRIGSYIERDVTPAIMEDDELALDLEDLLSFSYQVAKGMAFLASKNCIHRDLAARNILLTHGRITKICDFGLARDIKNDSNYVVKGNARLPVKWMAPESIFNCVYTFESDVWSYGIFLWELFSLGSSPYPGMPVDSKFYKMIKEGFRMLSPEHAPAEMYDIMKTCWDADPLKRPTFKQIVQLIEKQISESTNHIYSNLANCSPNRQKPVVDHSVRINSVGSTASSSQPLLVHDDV

SMILES	Kd (KIT) [nM]	Kd (PDGFRβ) [nM]	IC50 (M-NFS-60 cells; Mus musculus) [nM]	Kinase specificity S(10) [1]	Kd (CSF1R) [nM]	IC50 (M-NFS-60 cells) [nM]
O[C@@H]1CCCC[C@H]1Nc1nc2ccc(Cc3cnc4ccc(N5CCOCC5)nn34)cc2s1 [Example 155, (1R,2R)-2-((6-((6-morpholinoimidazo[1,2-b]pyridazin-3-yl)methyl)benzo[d]thiazol-2-yl)amino)cyclohexanol]	≤ 100	50 to 500	50 to 400	B (0.01<B≤0.02)	≤ 5	
O[C@@H]1CCCC[C@H]1Nc1nc2c(Cl)cc(Cc3cnc4ccc(N5CCOCC5)nn34)cc2s1 [Example 156, (1R,2R)-2-((4-chloro-6-((6-morpholinoimidazo[1,2-b]pyridazin-3-yl)methyl)benzo[d]thiazol-2-yl)amino)cyclohexanol]	> 2000	500 to 2000	400 to 1500	A (A≤0.01)	5 to 20	
O[C@@H]1CCCC[C@H]1Nc1nc2ccc(Cc3cnc4sccn34)cc2s1 [Example 157, (1R,2R)-2-((6-(imidazo[2,1-b]thiazol-5-ylmethyl)benzo[d]thiazol-2-yl)amino)cyclohexanol]	> 2000	500 to 2000	400 to 1500	A (A≤0.01)	20 to 50	
O[C@@H]1CCCC[C@H]1Nc1nc2ccc(Cc3cnc4ccc(Cl)nn34)cc2s1 [Example 158, (1R,2R)-2-((6-((6-chloroimidazo[1,2-b]pyridazin-3-yl)methyl)benzo[d]thiazol-2-yl)amino)cyclohexanol]	≤ 100	≤ 50	≤ 50	B (0.01<B≤0.02)	≤ 5	
O[C@@H]1CCCC[C@H]1Nc1nc2ccc(Cc3cnc4ccc(-n5cccn5)cn34)cc2s1 [Example 159, (1R,2R)-2-((6-((6-(1H-pyrazol-1-yl)imidazo[1,2-a]pyridin-3-yl)methyl)benzo[d]thiazol-2-yl)amino)cyclohexanol]	500 to 2000	500 to 2000	400 to 1500	A (A≤0.01)	5 to 20	
O[C@@H]1CCCC[C@H]1Nc1nc2ccc(Cn3cnc4cc(-n5cccn5)ccc43)cc2s1 [Example 160, (1R,2R)-2-((6-((5-(1H-pyrazol-1-yl)-1H-benzo[d]imidazol-1-yl)methyl)benzo[d]thiazol-2-yl)amino)cyclohexanol]	≤ 100	≤ 50	≤ 50	A (A≤0.01)	≤ 5	
O[C@@H]1CCCC[C@H]1Nc1nc2ccc(Cn3cnc4cc(-n5cncn5)ccc43)cc2s1 [Example 161, (1R,2R)-2-((6-((5-(1H-1,2,4-triazol-1-yl)-1H-benzo[d]imidazol-1-yl)methyl)benzo[d]thiazol-2-yl)amino)cyclohexanol]	100 to 500	50 to 500	50 to 400	A (A≤0.01)	5 to 20	
O[C@H]1CCCC[C@H]1Nc1nc2ccc(Cn3cnc4cc(F)cnc43)cc2s1 [Example 162, (1S,2R)-2-((6-((6-fluoro-3H-imidazo[4,5-b]pyridin-3-yl)methyl)benzo[d]thiazol-2-yl)amino)cyclohexanol]	100 to 500	50 to 500		A (A≤0.01)	≤ 5	50 to 400
O[C@H]1CC[C@H](Nc2nc3ccc(Cn4cnc5cc(F)cnc54)cc3s2)CC1 [Example 163, trans-4-((6-((6-fluoro-3H-imidazo[4,5-b]pyridin-3-yl)methyl)benzo[d]thiazol-2-yl)amino)cyclohexanol]	100 to 500	50 to 500	> 1500	A (A≤0.01)	> 50	
O[C@@H]1CCCC[C@H]1Nc1nc2ccc(Cn3cnc4cccnc43)c(F)c2s1 [Example 164, (1R,2R)-2-((6-((3H-imidazo[4,5-b]pyridin-3-yl)methyl)-7-fluorobenzo[d]thiazol-2-yl)amino)cyclohexanol]	> 2000	500 to 2000	400 to 1500	A (A≤0.01)	5 to 20	
COc1ccc2ncc(Cc3ccc4nc(N[C@@H]5CCCC[C@H]5O)sc4c3)n2c1 [Example 165, (1R,2R)-2-((6-((6-methoxyimidazo[1,2-a]pyridin-3-yl)methyl)benzo[d]thiazol-2-yl)amino)cyclohexanol]	500 to 2000	500 to 2000	400 to 1500	A (A≤0.01)	5 to 20	
O[C@@H]1CCCC[C@H]1Nc1nc2c(Br)cc(Cn3cnc4cccnc43)cc2s1 [Example 166, (1R,2R)-2-((6-((3H-imidazo[4,5-b]pyridin-3-yl)methyl)-4-bromobenzo[d]thiazol-2-yl)amino)cyclohexanol]	500 to 2000	> 2000	400 to 1500	A (A≤0.01)	5 to 20	
O[C@@H]1CCCC[C@H]1Nc1nc2ccc(Cc3cnc4cc(-n5cccn5)ccn34)cc2s1 [Example 167, (1R,2R)-2-((6-((7-(1H-pyrazol-1-yl)imidazo[1,2-a]pyridin-3-yl)methyl)benzo[d]thiazol-2-yl)amino)cyclohexanol]	100 to 500	50 to 500	≤ 50	A (A≤0.01)	≤ 5	
O[C@@H]1CCCC[C@H]1Nc1nc2c(F)cc(Cn3cnc4cccnc43)c(F)c2s1 [Example 168, (1R,2R)-2-((6-((3H-imidazo[4,5-b]pyridin-3-yl)methyl)-4,7-difluorobenzo[d]thiazol-2-yl)amino)cyclohexanol]	> 2000	> 2000	400 to 1500	A (A≤0.01)	5 to 20	
O[C@@H]1CCCC[C@H]1Nc1nc2ccc(Cc3cnc4cc(-n5cncn5)ccn34)cc2s1 [Example 169, (1R,2R)-2-((6-((7-(1H-1,2,4-triazol-1-yl)imidazo[1,2-a]pyridin-3-yl)methyl)benzo[d]thiazol-2-yl)amino)cyclohexanol]	500 to 2000	50 to 500	50 to 400	A (A≤0.01)	5 to 20	
N#Cc1ccc2c(c1)ncn2Cc1ccc2nc(N[C@@H]3CCCC[C@H]3O)oc2c1 [Example 170, 1-((2-(((1R,2R)-2-hydroxycyclohexyl)amino)benzo[d]oxazol-6-yl)methyl)-1H-benzo[d]imidazole-5-carbonitrile]	> 2000	500 to 2000	> 1500	A (A≤0.01)	> 50	
O[C@@H]1CCCC[C@H]1Nc1nc2ccc(Cn3cnc4cc(OCCN5CCOCC5)ccc43)cc2s1 [Example 171, (1R,2R)-2-((6-((5-(2-morpholinoethoxy)-1H-benzo[d]imidazol-1-yl)methyl)benzo[d]thiazol-2-yl)amino)cyclohexanol]	≤ 100	≤ 50	50 to 400	C (C>0.02)	5 to 20	
OCCOc1ccc2c(c1)ncn2Cc1ccc2nc(N[C@@H]3CCCC[C@H]3O)sc2c1 [Example 172, (1R,2R)-2-((6-((5-(2-hydroxyethoxy)-1H-benzo[d]imidazol-1-yl)methyl)benzo[d]thiazol-2-yl)amino)cyclohexanol]	100 to 500	50 to 500	50 to 400	B (0.01<B≤0.02)	≤ 5	
CNC(=O)c1ccc2c(c1)ncn2Cc1ccc2nc(N[C@@H]3CCCC[C@H]3O)sc2c1 [Example 173, 1-((2-(((1R,2R)-2-hydroxycyclohexyl)amino)benzo[d]thiazol-6-yl)methyl)-N-methyl-1H-benzo[d]imidazole-5-carboxamide]	100 to 500	50 to 500	50 to 400	B (0.01<B≤0.02)	5 to 20	
C=C(c1ccc2c(c1)ncn2Cc1ccc2nc(N[C@@H]3CCCC[C@H]3O)sc2c1)C(F)(F)F [Example 175, (1R,2R)-2-((6-((5-(3,3,3-trifluoroprop-1-en-2-yl)-1H-benzo[d]imidazol-1-yl)methyl)benzo[d]thiazol-2-yl)amino)cyclohexanol]	100 to 500	50 to 500	50 to 400	A (A≤0.01)	5 to 20	
Fc1cnc2c(c1)ncn2Cc1ccc2nc(N[C@H]3C=CCCC3)sc2c1 [Example 176, (R)—N-(cyclohex-2-en-1-yl)-6-((6-fluoro-3H-imidazo[4,5-b]pyridin-3-yl)methyl)benzo[d]thiazol-2-amine]	100 to 500	50 to 500	400 to 1500	B (0.01<B≤0.02)	5 to 20	
N#Cc1ccc2ncc(Cc3ccc4nc(N[C@@H]5CCCC[C@H]5O)sc4c3)n2n1 [Example 221, 3-((2-(((1R,2R)-2-hydroxycyclohexyl)amino)benzo[d]thiazol-6-yl)methyl)imidazo[1,2-b]pyridazine-6-carbonitrile]	≤ 100	≤ 50	≤ 50	B (0.01<B≤0.02)	≤ 5	

From patent US9938261B2, “Heterocyclic compounds and methods of use thereof” (AMBIT BIOSCIENCES CORPORATION, priority 2011, dated 2018)
